Reference: patent US7297551B2, “Recombinant proteins and peptides for endotoxin biosensors, endotoxin removal, and anti-microbial and anti-endotoxin therapeutics” (priority 1998, dated 2007)

Tests used:
[1] = biological target: T1, rFCSN (truncated C. rotundicauda Factor C, CrFC26SN, lacking the LPS-binding domain, from P. pastoris) (Carcinoscorpius rotundicauda, UniProt Q26423); assay: Modified Western blot of LPS/lipid A
T1 construct: Pichia pastoris
T1 sequence (Q26423 1-1083): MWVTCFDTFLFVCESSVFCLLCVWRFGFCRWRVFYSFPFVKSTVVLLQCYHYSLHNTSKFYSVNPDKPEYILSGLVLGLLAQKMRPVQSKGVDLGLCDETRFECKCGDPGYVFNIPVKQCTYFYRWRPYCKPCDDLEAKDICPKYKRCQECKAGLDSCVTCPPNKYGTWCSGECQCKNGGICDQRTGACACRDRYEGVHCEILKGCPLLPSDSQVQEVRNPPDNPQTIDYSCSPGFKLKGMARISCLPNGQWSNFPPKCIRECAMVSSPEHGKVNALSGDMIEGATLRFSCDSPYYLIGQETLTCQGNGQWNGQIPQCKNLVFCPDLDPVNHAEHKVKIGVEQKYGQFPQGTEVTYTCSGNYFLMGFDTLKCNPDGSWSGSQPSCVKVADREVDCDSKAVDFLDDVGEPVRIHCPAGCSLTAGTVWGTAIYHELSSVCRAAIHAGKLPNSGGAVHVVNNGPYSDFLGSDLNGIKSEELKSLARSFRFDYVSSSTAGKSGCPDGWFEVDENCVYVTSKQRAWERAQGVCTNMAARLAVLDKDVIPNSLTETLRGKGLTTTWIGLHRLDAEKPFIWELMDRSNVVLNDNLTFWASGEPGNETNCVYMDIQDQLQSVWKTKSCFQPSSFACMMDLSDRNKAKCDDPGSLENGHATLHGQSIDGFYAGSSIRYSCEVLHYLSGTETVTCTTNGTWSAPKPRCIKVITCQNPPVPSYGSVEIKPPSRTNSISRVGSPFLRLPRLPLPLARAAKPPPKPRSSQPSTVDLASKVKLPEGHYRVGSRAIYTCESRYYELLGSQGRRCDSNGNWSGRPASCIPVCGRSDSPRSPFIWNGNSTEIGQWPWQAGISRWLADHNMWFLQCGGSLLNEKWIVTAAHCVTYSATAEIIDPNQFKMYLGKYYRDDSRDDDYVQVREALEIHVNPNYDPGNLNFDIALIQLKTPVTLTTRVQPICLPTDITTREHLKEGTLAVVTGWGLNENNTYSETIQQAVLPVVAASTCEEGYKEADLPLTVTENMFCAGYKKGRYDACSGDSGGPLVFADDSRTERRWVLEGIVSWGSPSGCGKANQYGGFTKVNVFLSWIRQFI
Method: LPS from E. coli 055:B5 (Sigma) was reconstituted to 2 μg/μl, and diphosphoryl lipid A from E. coli K12, D31m4 LPS (List Biologicals, Inc., USA) was made up to 1 μg/μl. The LPS-binding assay was based on modifications of earlier described protocols (45,61). Briefly, 10 μg aliquots of LPS/lipid A were electrophoresed on a denaturing 15% SDS-polyacrylamide gel and electroblotted onto Immobilon™ PVDF membrane. The membrane was cut into strips and each LPS/lipid A strip was subsequently incubated with 300 μg of proteins containing rFC. Detection of rFC binding to lipid A was accomplished by incubation with anti-Factor C antibody followed by alkaline phosphatase-conjugated secondary goat anti-rabbit antibody (Dako) and BCIP/NBT colorimetric substrate (Moss, Inc., USA).

[2] = biological target: T2, SSCrFCES (LPS-binding domain of C. rotundicauda Factor C, rFCES amino acids 29-330, numbered as in SEQ ID NO: 4) (Carcinoscorpius rotundicauda, UniProt Q26422); assay: ELISA-based lipid A binding assay
T2 construct: rFCES (amino acids 29-330); made in house; host or cells: Drosophila S2 cells
T2 sequence (Q26422 29-330): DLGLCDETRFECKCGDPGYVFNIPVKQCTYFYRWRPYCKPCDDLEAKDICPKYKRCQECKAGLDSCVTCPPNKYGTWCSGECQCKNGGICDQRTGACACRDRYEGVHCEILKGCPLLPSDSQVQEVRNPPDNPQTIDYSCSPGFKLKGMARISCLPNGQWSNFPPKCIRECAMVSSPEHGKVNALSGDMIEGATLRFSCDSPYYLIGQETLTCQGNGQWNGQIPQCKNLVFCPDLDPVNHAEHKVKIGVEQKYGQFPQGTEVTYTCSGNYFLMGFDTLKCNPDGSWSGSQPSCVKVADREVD
Method: A Polysorp™ 96-well plate (Nunc) was first coated with 100 μl per well of various concentrations of lipid A diluted in pyrogen-free PBS. The plate was sealed and allowed to incubate overnight at room temperature. The wells were aspirated and washed 6 times with 200 μl per wash solution (PBS containing 0.01% Tween-20 and 0.01% thimerosal). Blocking of unoccupied sites was achieved using wash solution containing 0.2% BSA for 1 hour at room temperature. Subsequently, blocking solution was removed and the wells washed as described above. Varying concentrations of SSCrFCES were allowed to interact with bound lipid A at room temperature for 2 hours.
Bound SSCrFCES was detected by sequential incubation with rabbit anti-SSCrFCES antibody (1:1000 dilution) and goat anti-rabbit antibody conjugated with HRP (1:2000 dilution) (Dako). Incubation with each antibody was for 1 h at 37° C. with washing between incubations as described above. In the final step, 100 μl of peroxide substrate ABTS (Boehringer Mannheim) was added. Using a microtiter plate reader, the absorbance of the samples was determined at 405 nm with reference wavelength at 490 nm. The values were correlated to the amount of LPS bound and SSCrFCES present. Quantitation of SSCrFCES was achieved from a standard curve derived by immobilizing known amount of purified SSCrFCES onto a Maxisorp plate.

## lipid A
[1]
  binding to the 7-20 kDa lipid A bands: No binding
[2]
  Hill's coefficient: 2.2
  molar ratio of bound SSCrFCES to immobilized lipid A at saturation: 0.37
[2]; at saturation
  stoichiometry, lipid A molecules per SSCrFCES: ~3
